Source: patent publication US20080187492A1, “Drosophila Models For Diseases Affecting Learning and Memory” (priority 2004, published 2008)

How the values were obtained:
FS mutant flies = assay: Fusion of mushroom body β-lobes (anti-FasII staining), FS mutant flies; assay type: in vivo, Drosophila melanogaster
Procedure: Histological analysis was performed on relevant experimental flies, showing the fusion of MB beta lobes and the rescue of these fusions with in mGluR antagonists (FIG. 18). Brains from (0-1 day old) dfmr1 mutant adult flies were stained with anti-fasciclin II (ID4) and a rhodamine-coupled secondary antibody. The α, β, & γ lobes of the MBs are clearly labeled with this antibody and appear normal in this mutant brain (Panel A). Panels B-E show a higher magnification of the β-lobes at the midline. […] Panels C-E show mutants brains displaying a C) “mild” (arrowhead), D) “moderate” and E) “severe” level of midline crossing by the […]. […] WT rescue flies are dfmr1 mutants containing one copy of the dfmr1 genomic rescue fragment. The number of brains examined are listed below each group.
Rescue of β-lobe fusions with mGluR antagonists. Previously it has been established that the mushroom bodies are involved in learning and memory in the conditioned courtship and the odor shock classical conditioning paradigms in Drosophila (deBelle and Heisenberg, 1994; Joiner and Griffith, 1999; McBride et al, 1999; Zars et al, 2000; Paschel and Preat, 2001). […] When labeled with anti-FasII, we observed a range of β-lobe fusion defects in brains derived from 0-2 day old FS mutant flies, but not Rescue flies (FIG. 18).
Since treatment of FS mutant flies with mGluR antagonists rescued the memory defects observed in these flies, we examined the effect of these treatments on the β-lobe fusion defect to determine if the rescue of the two phenotypes was correlated. We raised FS mutant flies in food containing 8.6 mM MPEP, 400 nM LY341495 or 350 mM MTPG, then examined the morphology of the MBs in 0-2 day old adults. […] For example, mild fusion defects were only observed in 18% of FS mutant brains raised in food containing 400 nM LY341495 (FIG. 18F). No effect was observed when these drugs were fed to Rescue flies during development (not shown).
If this is true, then we would expect that the behavioral rescue obtained by treating FS mutant flies these drugs during adulthood alone would lead to a similar morphological rescue. To test this hypothesis, we treated FS mutant flies with 8.6 mM MPEP for four days starting at eclosion, and then transferred them to normal food for 24 hours before examining the morphology of their MBs. For comparison we also examined the MBs of flies left in control food for five days. […] Thus it appears that rescue of this morphological defect is not absolutely necessary for the rescue of the memory defects observed in the dfmr1 mutant flies.

[1] = system: wild type human and Drosophila tau expressing flies; assay: Short term memory in tau over expressing Drosophila Alzheimer's model; assay type: in vivo; conditions: for age dependent short term memory deficit: at 30 and 40 days
Text: Two Drosophila Alzheimer's models are particularly useful. One uses over expression of tau (either human wild type or Drosophila wild type with a myc tag) driven in the mushroom bodies. Flies overexpressing tau have normal memory at 5 days of age (young adults) but an age dependent impairment of short-term and long term memory by 26 days of age.

[2] = system: Rescue (dFMR1-3+wild type rescue fragment) flies; assay: Conditioned courtship: short-term memory at 60 minutes, virgin female target, Rescue flies; assay type: in vivo, Drosophila melanogaster; conditions: for short term memory: MPEP (20 μg/ml), NaCl (5 and 50 mM), LY341495 (400 nM); for short-term memory at 60 minutes after training: adulthood or both
Procedure: Short-term memory. The model was further extended to encompass short-term memory at 60 minutes after training. After the one hour training session with a previously mated female, the female is removed and the male is placed in a holding chamber for 60 minutes, then subsequently placed in a testing chamber with a virgin female target to assess short-term memory (FIG. 4C). […] CT-CT FS flies court just as vigorously at 60 minutes after training as naive CT-CT FS flies. […] The FS groups that were treated with MPEP in development alone, adulthood alone or in both development and adulthood display experience dependent reduction of courtship activity at 60 minutes after training when compared to group matched naives M-M FS, p<0.0001, CT-M FS, p<0.0001 and M-CT FS, p<0.0001. […] Additionally, flies were tested for ability to discriminate between virgin and previously mated females (FIG. 4D).
In order to examine short-term memory at 60 minutes after training, after the one hour training session with a previously mated female, the female is removed and the male is placed in a holding chamber for 60 minutes, then subsequently placed in a testing chamber with a virgin female (FIG. 9B). […] CT-CT FS flies court just as vigorously at 60 minutes after training as naive CT-CT FS flies. […] The FS groups that were treated with MPEP in development alone, adulthood alone or in both development and adulthood display experience dependent reduction of courtship activity at 60 minutes after training when compared to group matched naives M-M FS.

[3] = system: FS (dFMR1-3+frame shifted rescue fragment) flies; assay: Conditioned courtship: immediate recall (0 minute memory), FS flies; assay type: in vivo, Drosophila melanogaster; conditions: adulthood alone or both
Procedure: To assess immediate recall (0 minute memory), after the one hour training session with a previously mated female, the male was placed with a virgin target female for a ten-minute interval. This CI was then compared to the courtship level of naive males that had been placed in the training chamber for one hour with no female, before introducing them to a virgin target female for a ten-minute interval. In FIG. 1B the w1118 and Rescue lines show depression of courtship activity after training compared to naive trained males (p<0.005). However, dFMR1-3 and FS mutant lines court just as vigorously after training with a previously mated female as naive trained males, therefore these flies display no experience dependent behavioral plasticity at the time point of immediate recall. This is in spite of the fact that they court to similar levels as w1118 and Rescue lines during the training period. This implicates a deficit in synaptic plasticity for the two mutant lines at immediate recall (0 minute memory). This robust deficit in behavioral plasticity is a critical extension of the previous models of Fragile X syndrome in model organisms, since this has been completely missing in Drosophila models and is subtle in murine models, and particularly since this may be one of the most devastating aspects of the human disease.
Immediate recall. […]

[4] = raised in food containing 8.6 mM MPEP, 400 nM LY341495 or 350 mM MTPG, 0-2 day old adults

Row | Structure (SMILES) | β-lobe fusion defects (FS mutant flies; [4]) | FS mutant brains with (mild) fusion defects (FS mutant flies; raised in food containing 400 nM LY341495, untreated roughly 70%) [%] | age dependent short term memory deficit [1] | short term memory ([1]; treatment from day 30 to day 39, at 40 days of age) | short term memory ([2]; 5 day old) | β-lobe fusion defects (FS mutant flies; 8.6 mM MPEP for four days starting at eclosion (adulthood only)) | short-term memory at 60 minutes after training ([2]; 20-day-old, MPEP in development) | short-term memory at 60 minutes after training ([2]; 5 day old, MPEP 200 μg/ml in development) | immediate recall ([3]; 20-day-old, MPEP in development alone) | immediate recall (courtship immediately after training vs naive) ([3]; 5 day old, MPEP 200 μg/ml in development alone, p<0.0001)
1 | CC(N)(C(=O)O)c1ccc(-c2nnn[nH]2)cc1 (racemic) [MTPG, (RS)-α-methyl-4-tetrazolylphenylglycine] | rescue of the β-lobe fusion defects |  |  |  |  |  |  |  |  | 
2 | N[C@](CC1c2ccccc2Oc2ccccc21)(C(=O)O)[C@H]1C[C@@H]1C(=O)O [LY341495, (2S)-2-amino-2-[(1S,2S)-2-carboxycycloprop-1-yl]-3-(xanth-9-yl) propionic acid] | rescue of the β-lobe fusion defects | 18 | can rescue the age dependent short term memory deficit | can restore short term memory | did not affect short term memory |  |  |  |  | 
3 | Cc1cccc(C#Cc2ccccc2)n1 [MPEP, 2-methyl-6-(phenylethynyl)pyridine] | rescue of the β-lobe fusion defects |  | can rescue the age dependent short term memory deficit |  | did not affect short term memory | did not observe any rescue of the β-lobe fusion defects | does not adversely affect short-term memory | does not adversely affect short-term memory | sufficient to restore synaptic plasticity in FS flies | sufficient to rescue synaptic plasticity in FS flies
